# Data as given in patent publication US11149292B2, “Processes for the preparation of (R)-2-(7-(4-cyclopentyl-3-(trifluoromethyl)benzyloxy)-1,2,3,4-tetrahydrocyclopenta[B]indol-3-yl)acetic acid and salts thereof” (Arena Pharmaceuticals, Inc., priority 2010, dated 2021).
# Assays:
# S1P1 receptor = S1P1 receptor (Homo sapiens (Human), UniProt P21453); test: HTRF assay for direct cAMP measurement in recombinant CHO-K1 cells stably transfected with S1P1; type: cell-based
# Excerpt: CHO-K1 cells were obtained from ATCC® (Manassas, Va.; Catalog #CCL-61). […] The HTRF® assay has been used to determine EC50 values for S1P1 receptor agonists.
# HTRF® assay kit was purchased from Cisbio-US, Inc. (Bedford, Mass.; Catalog #62AM4PEC). The HTRF® assay supported by the kit is a competitive immunoassay between endogenous cAMP produced by the CHO-K1 cells and tracer cAMP labeled with the dye d2. The tracer binding is visualized by a monoclonal anti-cAMP antibody labeled with Cryptate. The specific signal (i.e., fluorescence resonance energy transfer, FRET) is inversely proportional to the concentration of unlabeled cAMP in the standard or sample.
# The fluorescence ratio (665 nm/620 nm) of the standards (0.17 to 712 nM cAMP) included in the assay was calculated and used to generate a cAMP standard curve according to the kit manufacturer's instructions. The fluorescence ratio of the samples (test compound or compound buffer) was calculated and used to deduce respective cAMP concentrations by reference to the cAMP standard curve.
# The HTRF® assay was carried out using a two-step protocol essentially according to the kit manufacturer's instructions, in […] total volume per well in 384-well plate format (ProxiPlates; PerkinElmer, Fremont, Calif.; catalog #6008280). […] The plate was then further incubated at room temperature for 1 hour, after which the assay plate was read. […]
# Female Lewis rats = test: Collagen-induced arthritis rat model; type: in vivo; settings: 0.3, 1 and 3 mg/kg p.o., q.d., day 0 to day 16; FIG. 3
# Procedure: Female Lewis rats were used in this study. Acclimated animals were anesthetized with isoflurane and given the first collagen injection (day 0). On day 6, they were anesthetized again for the second collagen injection. Collagen was prepared by making a 4 mg/mL solution in 0.01 N acetic acid. Equal volumes of collagen and incomplete Freund's adjuvant were emulsified by hand mixing until a bead of this material held its form when placed in water. Each animal received 300 μL of the mixture each time, spread over 3 subcutaneous sites on the back. Treatment (p.o., q.d., 5 mL/kg dosing volume) began on day 0 and continued through day 16 with vehicle or compounds given at 24 h intervals. Rats were weighed on days 0, 3, 6 and 9 through 17 and caliper measurements of the ankles taken on days 9 through 17.
# Male BALB/c mice = test: Mouse Peripheral Lymphocyte Lowering (PLL) assay; type: in vivo; settings: 1.00 mg/kg oral dose; blood at 5 hours post-dose; FIG. 1
# Procedure: Male BALB/c mice (Charles River Laboratories, Wilmington, Mass.) were housed four per cage and maintained in a humidity-controlled (40 to 60%) and temperature-controlled (68 to 72° F.) facility on a 12 h:12 h light/dark cycle (lights on at 6:30 am) with free access to food (Harlan Teklad, Orange, Calif., Rodent Diet 8604) and water. Mice were allowed one week of habituation to the animal facility before testing. PLL Assay: […] Peripheral blood samples were collected at 5 hours post-dose. The mice were anesthetized with isoflurane and blood was collected via cardiac puncture. A complete cell count (CBC), including lymphocyte count, was obtained using a CELL-DYN® 3700 (Abbott Laboratories, Abbott Park, Ill.) instrument. Results are presented in FIG. 1, in which peripheral blood lymphocyte (PBL) count is shown for the 5 hour group.
# Male Sprague-Dawley rats [1] = test: Rat Peripheral Lymphocyte Lowering (PLL) assay; type: in vivo; settings: 1.00 mg/kg oral dose; blood at 5 hours post-dose; FIG. 2
# Procedure: Male Sprague-Dawley rats (7 weeks of age at start of study) (Charles River Laboratories) were housed two per cage and maintained in a humidity-controlled (40-60%) and temperature-controlled (68-72° F.) facility on a 12 h:12 h light/dark cycle (lights on at 6:30 am) with free access to food (Harlan Teklad, Orange, Calif., Rodent Diet 8604) and water. Rats were allowed one week of habituation to the animal facility before testing. […] Peripheral blood samples were collected at 5 hours post-dose. Blood was collected via indwelling catheter. A complete cell count (CBC), including lymphocyte count, was obtained using a CELL-DYN® 3700 (Abbott Laboratories, Abbott Park, Ill.) instrument. Results are presented in FIG. 2, in which peripheral blood lymphocyte (PBL) count is shown for the 5 hour group.
# Male Sprague-Dawley rats [2] = test: Cardiac telemetry in the rat (exemplary bradycardia assay); type: in vivo; settings: oral, vehicle PEG400; heart rate measured over a 120 min period
# Procedure: Male Sprague-Dawley rats (250-300 g at time of surgery) were implanted by Charles River Laboratories (Wilmington, Mass.) with cardiac transmitting devices (Data Sciences PhysioTel C50-PXT) into the peritoneal space, with a pressure-sensing catheter inserted into the descending aorta. Rats are allowed at least one week to recover. Rats were housed in individual cages and maintained in a humidity-controlled (30-70%) and temperature-controlled (20-22° C.) facility on a 12 h:12 h light/dark cycle (lights on at 7:00 am) with free access to food (Harlan-Teklad, Orange, Calif., Rodent Diet 8604) and water. Rats were allowed one week of habituation to the animal facility before testing.
# The implanted transmitting devices transmitted continuous measurements of blood pressure (systolic, diastolic, mean arterial, pulse), heart rate, body temperature, and motor activity in freely moving conscious animals. […] Telemetry recording occurred over a 21-h period, starting at noon and continuing until 9:00 am the following day. […]
# By way of illustration and not limitation, the rats were administered vehicle (PEG 400) and (R)-2-(7-(4-cyclopentyl-3-(trifluoromethyl)benzyloxy)-1,2,3,4-tetrahydrocyclopenta[b]indol-3-yl)acetic acid and heart rate was then measured over a 120 min period.
# Female C57BL/6 mice = test: MOG-induced experimental autoimmune encephalomyelitis (EAE) in mice; type: in vivo, mouse; settings: 0.3, 1 and 3 mg/kg orally once a day from day 3 until day 21; FIG. 4
# S1P1 receptor, sequence (P21453 whole entry): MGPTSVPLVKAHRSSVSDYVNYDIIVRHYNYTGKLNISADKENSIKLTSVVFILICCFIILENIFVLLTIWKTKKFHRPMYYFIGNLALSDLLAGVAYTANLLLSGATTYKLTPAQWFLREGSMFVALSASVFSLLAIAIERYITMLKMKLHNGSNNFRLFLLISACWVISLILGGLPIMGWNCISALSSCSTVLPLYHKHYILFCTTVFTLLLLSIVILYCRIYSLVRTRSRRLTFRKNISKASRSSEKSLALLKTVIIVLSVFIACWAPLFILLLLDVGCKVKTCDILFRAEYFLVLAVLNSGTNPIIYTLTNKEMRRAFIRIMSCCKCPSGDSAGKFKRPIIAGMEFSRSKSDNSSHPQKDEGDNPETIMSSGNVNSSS
smiles,measurement,setting,value
"O=C(O)C[C@H]1CCc2c1[nH]c1ccc(OCc3ccc(C4CCCC4)c(C(F)(F)F)c3)cc21 [(R)-2-(7-(4-cyclopentyl-3-(trifluoromethyl)benzyloxy)-1,2,3,4-tetrahydrocyclopenta[b]indol-3-yl)acetic acid]",S1P1 receptor agonism (decrease of cAMP concentration),S1P1 receptor,agonist of the S1P1 receptor
same,reduction of mean ankle diameter,Female Lewis rats,exhibited activity for reducing mean ankle diameter
same,peripheral blood lymphocyte (PBL) count lowering vs vehicle,Male BALB/c mice,exhibited activity for inducing PBL lowering (lymphopenia)
same,peripheral blood lymphocyte (PBL) count lowering vs vehicle,Male Sprague-Dawley rats [1],exhibited activity for inducing PBL lowering (lymphopenia)
same,reduction of heart rate (bradycardia) vs vehicle,Male Sprague-Dawley rats [2],no or substantially no reduction of heart rate
same,reduction of severity of disease symptoms (clinical score) in EAE,Female C57BL/6 mice,exhibited activity in the mouse EAE assay
